Experimental data reported in patent US20240116892A1, “HETEROCYCLIC AMIDE AND UREA COMPOUNDS AS JAK2 INHIBITORS” (Ajax Therapeutics, Inc., priority 2022, published 2024).

biological target: JAK2 (JH1 domain-catalytic, Y1007F, Y1008F) kinase (Homo sapiens (Human), UniProt O60674, Y1007F/Y1008F); experiment: JAK2 JH1 Domain Binding Assay; conditions: qPCR readout
How it was run: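 Competitive binding format: test compound, DNA-tagged JAK2 JH1 (Y1007F/Y1008F; HEK293-expressed NFkB fusion) and ligand-coated magnetic beads incubated 1 h at room temperature. Kinase retained on beads released with 0.5 μmol/L non-biotinylated ligand, then measured by qPCR.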

Sequence of JAK2 (JH1 domain-catalytic, Y1007F, Y1008F) kinase (O60674 849-1124 Y1007F/Y1008F): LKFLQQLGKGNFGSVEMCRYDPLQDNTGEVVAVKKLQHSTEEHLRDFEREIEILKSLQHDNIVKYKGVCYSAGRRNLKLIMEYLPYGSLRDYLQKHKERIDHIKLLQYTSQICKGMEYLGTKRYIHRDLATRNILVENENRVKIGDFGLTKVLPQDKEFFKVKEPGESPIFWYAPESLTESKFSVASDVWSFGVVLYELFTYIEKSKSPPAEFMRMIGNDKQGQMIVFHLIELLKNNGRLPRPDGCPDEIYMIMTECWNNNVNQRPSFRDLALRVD

Structure (SMILES) | Kd
CN(C(=O)Nc1cc(C(F)(F)F)cn(C)c1=O)[C@H]1CCN(c2cnc3[nH]nc(OC4COC4)c3c2)C[C@H]1F [Example I-101-b, 1-((3R,4S)-3-fluoro-1-(3-(oxetan-3-yloxy)-1H-pyrazolo[3,4-b]pyridin-5-yl)piperidin-4-yl)-1-methyl-3-(1-methyl-2-oxo-5-(trifluoromethyl)-1,2-dihydropyridin-3-yl)urea] | 1000 to 5000 nM
CN(C(=O)Nc1cc(C(F)(F)F)cn(C)c1=O)[C@@H]1CCN(c2cnc3[nH]nc(OC[C@H]4COCCO4)c3c2)C[C@@H]1F [Example I-102-a, 1-((3S,4R)-1-(3-(((R)-1,4-dioxan-2-yl)methoxy)-1H-pyrazolo[3,4-b]pyridin-5-yl)-3-fluoropiperidin-4-yl)-1-methyl-3-(1-methyl-2-oxo-5-(trifluoromethyl)-1,2-dihydropyridin-3-yl)urea] | < 10 nM
CN(C(=O)Nc1cc(C(F)(F)F)cn(C)c1=O)[C@H]1CCN(c2cnc3[nH]nc(OC[C@H]4COCCO4)c3c2)C[C@H]1F [Example I-102-b, 1-((3R,4S)-1-(3-(((R)-1,4-dioxan-2-yl)methoxy)-1H-pyrazolo[3,4-b]pyridin-5-yl)-3-fluoropiperidin-4-yl)-1-methyl-3-(1-methyl-2-oxo-5-(trifluoromethyl)-1,2-dihydropyridin-3-yl)urea] | < 10 nM
CN(C(=O)Nc1cc(C(F)(F)F)cn(C)c1=O)[C@H]1CCN(c2cnc3[nH]c(=O)n(C)c3c2)C[C@H]1F [Example I-103-a, 1-((3R,4S)-3-fluoro-1-(1-methyl-2-oxo-2,3-dihydro-1H-imidazo[4,5-b]pyridin-6-yl)piperidin-4-yl)-1-methyl-3-(1-methyl-2-oxo-5-(trifluoromethyl)-1,2-dihydropyridin-3-yl)urea] | < 10 nM
CN(C(=O)Nc1cc(C(F)(F)F)cn(C)c1=O)[C@@H]1CCN(c2cnc3[nH]c(=O)n(C)c3c2)C[C@@H]1F [Example I-103-b, 1-((3S,4R)-3-fluoro-1-(1-methyl-2-oxo-2,3-dihydro-1H-imidazo[4,5-b]pyridin-6-yl)piperidin-4-yl)-1-methyl-3-(1-methyl-2-oxo-5-(trifluoromethyl)-1,2-dihydropyridin-3-yl)urea] | < 10 nM
COCCOc1n[nH]c2ncc(N3CC[C@@H](N(C)C(=O)Nc4cc(C(F)(F)F)cn(C)c4=O)[C@@H](F)C3)cc12 [Example I-104-a, 1-((3S,4R)-3-fluoro-1-(3-(2-methoxyethoxy)-1H-pyrazolo[3,4-b]pyridin-5-yl)piperidin-4-yl)-1-methyl-3-(1-methyl-2-oxo-5-(trifluoromethyl)-1,2-dihydropyridin-3-yl)urea] | < 10 nM
COCCOc1n[nH]c2ncc(N3CC[C@H](N(C)C(=O)Nc4cc(C(F)(F)F)cn(C)c4=O)[C@H](F)C3)cc12 [Example I-104-b, 1-((3R,4S)-3-fluoro-1-(3-(2-methoxyethoxy)-1H-pyrazolo[3,4-b]pyridin-5-yl)piperidin-4-yl)-1-methyl-3-(1-methyl-2-oxo-5-(trifluoromethyl)-1,2-dihydropyridin-3-yl)urea] | < 10 nM
C[C@H]1C[C@@H](N(C)C(=O)Nc2cc(C(F)(F)F)cn(C)c2=O)CCN1c1cnc2[nH]ncc2c1 [Example I-105-a, 1-methyl-1-((2S,4S)-2-methyl-1-(1H-pyrazolo[3,4-b]pyridin-5-yl)piperidin-4-yl)-3-(1-methyl-2-oxo-5-(trifluoromethyl)-1,2-dihydropyridin-3-yl)urea] | < 10 nM
C[C@@H]1C[C@H](N(C)C(=O)Nc2cc(C(F)(F)F)cn(C)c2=O)CCN1c1cnc2[nH]ncc2c1 [Example I-105-b, 1-methyl-1-((2R,4R)-2-methyl-1-(1H-pyrazolo[3,4-b]pyridin-5-yl)piperidin-4-yl)-3-(1-methyl-2-oxo-5-(trifluoromethyl)-1,2-dihydropyridin-3-yl)urea] | < 10 nM
COc1n[nH]c2ncc(N3CC[C@@H](N(C)C(=O)Nc4cc(C(F)(F)F)cn(C)c4=O)[C@@H](OC)C3)cc12 [Example I-106-a, 1-((3S,4R)-3-methoxy-1-(3-methoxy-1H-pyrazolo[3,4-b]pyridin-5-yl)piperidin-4-yl)-1-methyl-3-(1-methyl-2-oxo-5-(trifluoromethyl)-1,2-dihydropyridin-3-yl)urea] | < 10 nM
COc1n[nH]c2ncc(N3CC[C@H](N(C)C(=O)Nc4cc(C(F)(F)F)cn(C)c4=O)[C@H](OC)C3)cc12 [Example I-106-b, 1-((3R,4S)-3-methoxy-1-(3-methoxy-1H-pyrazolo[3,4-b]pyridin-5-yl)piperidin-4-yl)-1-methyl-3-(1-methyl-2-oxo-5-(trifluoromethyl)-1,2-dihydropyridin-3-yl)urea] | < 10 nM
CN(C(=O)Nc1cc(C(F)(F)F)cn(C)c1=O)[C@@H]1CCN(c2cnc3[nH]nc(OC4CCOCC4)c3c2)C[C@@H]1F [Example I-107-a, 1-((3S,4R)-3-fluoro-1-(3-((tetrahydro-2H-pyran-4-yl)oxy)-1H-pyrazolo[3,4-b]pyridin-5-yl)piperidin-4-yl)-1-methyl-3-(1-methyl-2-oxo-5-(trifluoromethyl)-1,2-dihydropyridin-3-yl)urea] | < 10 nM
CN(C(=O)Nc1cc(C(F)(F)F)cn(C)c1=O)[C@H]1CCN(c2cnc3[nH]nc(OC4CCOCC4)c3c2)C[C@H]1F [Example I-107-b, 1-((3R,4S)-3-fluoro-1-(3-((tetrahydro-2H-pyran-4-yl)oxy)-1H-pyrazolo[3,4-b]pyridin-5-yl)piperidin-4-yl)-1-methyl-3-(1-methyl-2-oxo-5-(trifluoromethyl)-1,2-dihydropyridin-3-yl)urea] | < 10 nM
COc1n[nH]c2ncc(N3CC[C@@H](N(C)C(=O)Nc4cc(C(F)(F)F)cn(C)c4=O)[C@H](OC)C3)cc12 [Example I-108-a, 1-((3R,4R)-3-methoxy-1-(3-methoxy-1H-pyrazolo[3,4-b]pyridin-5-yl)piperidin-4-yl)-1-methyl-3-(1-methyl-2-oxo-5-(trifluoromethyl)-1,2-dihydropyridin-3-yl)urea] | 10 to 50 nM
COc1n[nH]c2ncc(N3CC[C@H](N(C)C(=O)Nc4cc(C(F)(F)F)cn(C)c4=O)[C@@H](OC)C3)cc12 [Example I-108-b, 1-((3S,4S)-3-methoxy-1-(3-methoxy-1H-pyrazolo[3,4-b]pyridin-5-yl)piperidin-4-yl)-1-methyl-3-(1-methyl-2-oxo-5-(trifluoromethyl)-1,2-dihydropyridin-3-yl)urea] | 10 to 50 nM
CO[C@@H]1CN(c2cnc3[nH]ncc3c2)CC[C@H]1N(C)C(=O)Nc1cc(C(F)(F)F)cn(C)c1=O [Example I-109-a, 1-((3R,4R)-3-methoxy-1-(1H-pyrazolo[3,4-b]pyridin-5-yl)piperidin-4-yl)-1-methyl-3-(1-methyl-2-oxo-5-(trifluoromethyl)-1,2-dihydropyridin-3-yl)urea] | 10 to 50 nM
CO[C@H]1CN(c2cnc3[nH]ncc3c2)CC[C@@H]1N(C)C(=O)Nc1cc(C(F)(F)F)cn(C)c1=O [Example I-109-b, 1-((3S,4S)-3-methoxy-1-(1H-pyrazolo[3,4-b]pyridin-5-yl)piperidin-4-yl)-1-methyl-3-(1-methyl-2-oxo-5-(trifluoromethyl)-1,2-dihydropyridin-3-yl)urea] | 10 to 50 nM
COCc1cc2nc(N3CC[C@@H](N(C)C(=O)Nc4cc(C(F)(F)F)cn(C)c4=O)C(F)(F)C3)cnc2[nH]1 [Example I-110-a, (R)-1-(3,3-difluoro-1-(6-(methoxymethyl)-5H-pyrrolo[2,3-b]pyrazin-2-yl)piperidin-4-yl)-1-methyl-3-(1-methyl-2-oxo-5-(trifluoromethyl)-1,2-dihydropyridin-3-yl)urea] | < 10 nM
